The values below come from ChEMBL document CHEMBL1145874, “Discovery and SAR of novel, potent and selective protein tyrosine phosphatase 1B inhibitors” (Bioorg Med Chem Lett, 2003).

The target in test [1] is T1, Tyrosine-protein phosphatase non-receptor type 11 (Homo sapiens, UniProt Q06124).
T1 sequence (Q06124 whole entry): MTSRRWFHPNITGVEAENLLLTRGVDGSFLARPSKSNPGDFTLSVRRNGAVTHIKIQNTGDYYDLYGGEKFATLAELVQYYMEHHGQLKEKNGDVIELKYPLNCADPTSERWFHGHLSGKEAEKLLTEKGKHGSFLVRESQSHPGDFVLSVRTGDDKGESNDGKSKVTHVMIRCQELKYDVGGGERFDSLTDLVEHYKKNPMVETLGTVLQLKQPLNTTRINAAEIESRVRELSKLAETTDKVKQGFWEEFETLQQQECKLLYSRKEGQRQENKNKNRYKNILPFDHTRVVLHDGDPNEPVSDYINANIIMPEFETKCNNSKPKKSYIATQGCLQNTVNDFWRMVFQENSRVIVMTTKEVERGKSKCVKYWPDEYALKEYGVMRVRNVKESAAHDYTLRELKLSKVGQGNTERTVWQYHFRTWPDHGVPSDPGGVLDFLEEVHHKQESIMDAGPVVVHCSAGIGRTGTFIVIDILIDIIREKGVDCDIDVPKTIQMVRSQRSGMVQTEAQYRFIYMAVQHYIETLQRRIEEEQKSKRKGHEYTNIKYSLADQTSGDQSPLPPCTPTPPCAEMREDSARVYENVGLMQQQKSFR
The test is described as follows: Inhibitory potency against Tyrosine phosphatase SHP2.

Test [2] deals with Tyrosine-protein phosphatase non-receptor type 2 (Homo sapiens, UniProt P17706). The test is described as follows: Inhibition of T-cell Protein Tyrosine Phosphatase (TCPTP).
Test [3] has as its target T2, Receptor-type tyrosine-protein phosphatase C (Homo sapiens, UniProt P08575).
T2 sequence (P08575 whole entry): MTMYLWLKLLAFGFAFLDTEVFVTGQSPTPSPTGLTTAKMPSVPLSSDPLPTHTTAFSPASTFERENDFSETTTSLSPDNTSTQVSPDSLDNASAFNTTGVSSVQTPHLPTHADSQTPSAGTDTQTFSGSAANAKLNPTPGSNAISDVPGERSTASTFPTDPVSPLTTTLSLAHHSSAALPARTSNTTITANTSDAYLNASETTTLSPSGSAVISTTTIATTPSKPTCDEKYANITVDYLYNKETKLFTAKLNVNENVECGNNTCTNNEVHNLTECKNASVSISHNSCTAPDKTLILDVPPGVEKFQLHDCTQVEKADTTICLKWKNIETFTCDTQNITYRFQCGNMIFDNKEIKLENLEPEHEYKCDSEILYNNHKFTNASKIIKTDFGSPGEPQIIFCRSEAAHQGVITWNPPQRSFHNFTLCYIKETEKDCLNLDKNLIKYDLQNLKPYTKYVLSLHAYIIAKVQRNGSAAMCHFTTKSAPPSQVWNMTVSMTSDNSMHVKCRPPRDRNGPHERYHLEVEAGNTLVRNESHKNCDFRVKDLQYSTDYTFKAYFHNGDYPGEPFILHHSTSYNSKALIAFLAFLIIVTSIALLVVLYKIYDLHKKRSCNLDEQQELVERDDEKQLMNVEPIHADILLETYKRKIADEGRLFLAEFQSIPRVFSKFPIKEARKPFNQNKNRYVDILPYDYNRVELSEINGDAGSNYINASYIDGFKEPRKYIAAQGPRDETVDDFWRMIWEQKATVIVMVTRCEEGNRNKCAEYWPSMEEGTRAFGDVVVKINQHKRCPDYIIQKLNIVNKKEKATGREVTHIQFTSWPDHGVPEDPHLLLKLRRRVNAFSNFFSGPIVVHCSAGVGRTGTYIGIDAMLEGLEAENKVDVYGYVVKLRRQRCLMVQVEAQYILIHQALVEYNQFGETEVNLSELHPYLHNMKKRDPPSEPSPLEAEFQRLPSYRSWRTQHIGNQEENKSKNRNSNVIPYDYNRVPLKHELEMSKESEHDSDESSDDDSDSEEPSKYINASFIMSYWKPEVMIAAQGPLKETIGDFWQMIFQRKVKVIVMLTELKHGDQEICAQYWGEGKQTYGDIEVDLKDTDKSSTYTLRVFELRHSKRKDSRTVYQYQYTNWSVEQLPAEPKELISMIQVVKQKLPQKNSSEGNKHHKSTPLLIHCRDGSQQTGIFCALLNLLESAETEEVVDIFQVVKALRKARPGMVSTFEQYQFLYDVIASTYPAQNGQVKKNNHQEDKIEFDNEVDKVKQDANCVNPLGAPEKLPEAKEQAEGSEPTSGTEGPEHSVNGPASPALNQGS
Briefly: Inhibitory potency against CD45 Phosphatase.

Test [4] deals with Receptor-type tyrosine-protein phosphatase F (Homo sapiens, UniProt P10586). The test is described as follows: Inhibitory potency against LAR.
Test [5] concerns the target T3, M-phase inducer phosphatase 3 (Homo sapiens, UniProt P30307).
T3 sequence (P30307 whole entry): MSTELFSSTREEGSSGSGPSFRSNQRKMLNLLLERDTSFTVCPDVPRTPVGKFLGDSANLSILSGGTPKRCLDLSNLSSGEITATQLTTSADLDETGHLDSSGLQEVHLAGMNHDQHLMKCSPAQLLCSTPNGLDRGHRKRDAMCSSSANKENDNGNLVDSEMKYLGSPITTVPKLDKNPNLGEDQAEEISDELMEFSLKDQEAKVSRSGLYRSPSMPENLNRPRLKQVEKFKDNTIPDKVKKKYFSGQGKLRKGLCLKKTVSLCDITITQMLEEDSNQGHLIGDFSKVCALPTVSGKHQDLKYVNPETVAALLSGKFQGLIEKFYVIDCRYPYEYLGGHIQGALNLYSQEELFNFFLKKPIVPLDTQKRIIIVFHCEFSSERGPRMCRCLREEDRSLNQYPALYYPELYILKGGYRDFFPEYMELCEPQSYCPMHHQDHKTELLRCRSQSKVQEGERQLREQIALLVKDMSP
The test is described as follows: Inhibitory potency against Cell division cycle 25 degree C.

Test [6] deals with T4, Tyrosine-protein phosphatase non-receptor type 1 (Homo sapiens, UniProt P18031).
T4 sequence (P18031 whole entry): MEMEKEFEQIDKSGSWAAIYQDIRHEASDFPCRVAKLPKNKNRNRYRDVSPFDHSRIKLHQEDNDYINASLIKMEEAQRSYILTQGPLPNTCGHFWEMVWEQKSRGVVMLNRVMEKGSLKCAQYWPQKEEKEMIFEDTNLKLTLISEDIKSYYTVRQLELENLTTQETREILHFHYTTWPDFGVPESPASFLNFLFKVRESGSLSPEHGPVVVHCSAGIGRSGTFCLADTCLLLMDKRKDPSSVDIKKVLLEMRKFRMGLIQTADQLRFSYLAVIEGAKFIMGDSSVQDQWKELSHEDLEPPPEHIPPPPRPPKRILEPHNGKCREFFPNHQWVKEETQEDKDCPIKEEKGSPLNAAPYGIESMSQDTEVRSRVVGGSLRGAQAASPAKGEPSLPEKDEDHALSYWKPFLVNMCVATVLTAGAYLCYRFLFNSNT
The test is described as follows: Inhibition of Protein-tyrosine phosphatase 1B (PTP1B).

The term Ki denotes a dissociation constant, usually derived from enzyme kinetics or from competition with a known ligand. A lower Ki goes with a stronger hold on the target.

Sequence of Tyrosine-protein phosphatase non-receptor type 2 (P17706 whole entry, looked up): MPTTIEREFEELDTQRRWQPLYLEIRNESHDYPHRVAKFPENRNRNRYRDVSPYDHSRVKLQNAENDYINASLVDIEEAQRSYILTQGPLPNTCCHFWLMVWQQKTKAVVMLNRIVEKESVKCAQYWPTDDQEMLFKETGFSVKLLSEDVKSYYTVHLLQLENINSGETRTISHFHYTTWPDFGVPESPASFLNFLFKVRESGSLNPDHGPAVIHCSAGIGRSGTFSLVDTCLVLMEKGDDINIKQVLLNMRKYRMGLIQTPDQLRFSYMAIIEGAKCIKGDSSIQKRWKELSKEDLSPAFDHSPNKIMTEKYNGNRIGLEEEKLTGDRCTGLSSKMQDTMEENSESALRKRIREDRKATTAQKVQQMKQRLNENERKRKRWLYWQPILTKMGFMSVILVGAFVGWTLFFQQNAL
Sequence of Receptor-type tyrosine-protein phosphatase F (P10586 whole entry): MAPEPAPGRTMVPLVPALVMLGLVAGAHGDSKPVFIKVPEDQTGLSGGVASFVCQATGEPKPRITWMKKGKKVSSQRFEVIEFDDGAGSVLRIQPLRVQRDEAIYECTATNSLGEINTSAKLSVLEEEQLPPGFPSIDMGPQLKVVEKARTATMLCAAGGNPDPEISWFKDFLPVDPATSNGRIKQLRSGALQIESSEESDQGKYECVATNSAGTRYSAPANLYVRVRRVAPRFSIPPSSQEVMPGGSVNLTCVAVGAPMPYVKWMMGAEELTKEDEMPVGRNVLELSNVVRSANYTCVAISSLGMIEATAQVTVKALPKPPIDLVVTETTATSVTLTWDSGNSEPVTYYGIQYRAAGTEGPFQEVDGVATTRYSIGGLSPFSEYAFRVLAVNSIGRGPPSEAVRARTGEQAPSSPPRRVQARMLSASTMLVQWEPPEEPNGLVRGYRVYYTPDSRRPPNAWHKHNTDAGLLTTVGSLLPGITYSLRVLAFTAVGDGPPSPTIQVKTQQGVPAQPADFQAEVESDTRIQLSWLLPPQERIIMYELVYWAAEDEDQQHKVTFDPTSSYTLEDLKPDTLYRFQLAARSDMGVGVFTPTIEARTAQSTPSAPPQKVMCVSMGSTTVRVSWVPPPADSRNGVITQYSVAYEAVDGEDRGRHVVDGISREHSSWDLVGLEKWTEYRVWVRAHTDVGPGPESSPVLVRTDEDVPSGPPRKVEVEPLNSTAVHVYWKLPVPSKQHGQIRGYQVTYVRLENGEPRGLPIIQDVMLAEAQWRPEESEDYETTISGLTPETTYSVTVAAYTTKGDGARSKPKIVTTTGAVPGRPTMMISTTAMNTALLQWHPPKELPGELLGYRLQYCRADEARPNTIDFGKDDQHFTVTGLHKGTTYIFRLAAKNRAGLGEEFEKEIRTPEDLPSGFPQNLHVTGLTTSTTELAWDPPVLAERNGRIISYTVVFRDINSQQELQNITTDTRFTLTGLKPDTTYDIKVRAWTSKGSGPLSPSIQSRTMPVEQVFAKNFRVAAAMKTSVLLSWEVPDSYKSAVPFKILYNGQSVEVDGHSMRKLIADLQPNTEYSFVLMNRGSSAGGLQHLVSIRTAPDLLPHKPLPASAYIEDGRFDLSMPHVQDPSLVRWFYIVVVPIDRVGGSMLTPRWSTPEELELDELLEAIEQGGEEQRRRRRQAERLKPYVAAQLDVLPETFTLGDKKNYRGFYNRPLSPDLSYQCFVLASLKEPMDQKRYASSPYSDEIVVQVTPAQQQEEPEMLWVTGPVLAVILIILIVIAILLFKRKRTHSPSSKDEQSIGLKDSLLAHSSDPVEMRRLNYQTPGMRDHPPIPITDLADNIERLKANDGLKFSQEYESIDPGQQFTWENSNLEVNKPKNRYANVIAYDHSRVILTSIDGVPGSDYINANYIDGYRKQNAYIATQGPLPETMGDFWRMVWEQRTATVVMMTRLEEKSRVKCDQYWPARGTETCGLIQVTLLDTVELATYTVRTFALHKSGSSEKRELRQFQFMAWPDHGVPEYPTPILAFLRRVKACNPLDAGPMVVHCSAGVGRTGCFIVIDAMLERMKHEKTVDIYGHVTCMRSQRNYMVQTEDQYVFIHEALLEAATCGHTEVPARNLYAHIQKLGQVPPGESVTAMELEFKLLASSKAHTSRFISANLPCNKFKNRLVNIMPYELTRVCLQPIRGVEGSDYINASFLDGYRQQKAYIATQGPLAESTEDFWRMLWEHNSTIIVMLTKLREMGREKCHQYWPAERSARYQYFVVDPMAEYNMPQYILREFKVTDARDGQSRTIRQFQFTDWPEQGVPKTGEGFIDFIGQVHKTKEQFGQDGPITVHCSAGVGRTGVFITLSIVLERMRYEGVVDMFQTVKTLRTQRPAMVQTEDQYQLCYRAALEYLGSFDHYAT

For `COC(=O)c1c(O)cccc1OCCCCNC(=O)C(Cc1ccc(OC(C(=O)O)C(=O)O)cc1)NC(=O)OC(C)(C)C` (stereo unspecified), the Ki is over 30 µM in test [1]; 24.8 µM in test [2]; over 30 µM in test [3]; over 30 µM in test [4]; over 30 µM in test [5].

Regarding `CCC(CC(=O)O)N(C(=O)C(=O)O)c1ccc(C[C@H](NC(=O)OC(C)(C)C)C(=O)NCCCCOc2cccc(O)c2C(=O)OC)cc1` (stereo partly specified), the Ki in test [6] amounted to 1.8 µM.

Consider `COC(=O)c1c(O)cccc1OCCCCNC(=O)[C@H](Cc1ccc(N(CC(C)C(=O)O)C(=O)C(=O)O)cc1)NC(=O)OC(C)(C)C` (stereo partly specified), for which the Ki worked out at 3.2 µM in test [6] and 16.7 µM in test [2].

For `COC(=O)c1c(O)cccc1OCCCCNC(=O)[C@H](Cc1ccc(OCC(=O)O)c(C(=O)O)c1)NC(=O)OC(C)(C)C`, the Ki is 2.1 µM in test [6] and over 30 µM in test [2].

Take `COC(=O)c1c(O)cccc1OCCCCNC(=O)[C@H](Cc1ccc(OC(C)C(=O)O)c(C(=O)O)c1)NC(=O)[C@H](Cc1ccccc1)NC(=O)OC(C)(C)C` (stereo partly specified): the Ki is 0.16 µM in test [6]; over 30 µM in test [1]; 1.97 µM in test [2]; over 30 µM in test [3]; over 30 µM in test [4]; over 30 µM in test [5].

Turning to `COC(=O)c1c(O)cccc1OCCCCNC(=O)C(Cc1ccc(OC(C(=O)O)C(=O)NC2CC2)cc1)NC(=O)OC(C)(C)C` (stereo unspecified), the results for the Ki in test [6] and in test [2] were 8.4 µM and over 200 µM, respectively.

Turning to `COC(=O)c1c(O)cccc1OCCCCNC(=O)[C@H](Cc1ccc(N(CCC(=O)O)C(=O)C(=O)O)cc1)NC(=O)OC(C)(C)C`, the Ki in test [6] and in test [2] was over 200 µM each time.

As to `COC(=O)c1c(O)cccc1OCCCCNC(=O)[C@H](Cc1ccc(OC(C)C(=O)O)c(C(=O)O)c1)NC(=O)OC(C)(C)C` (stereo partly specified), the Ki in test [6] was determined as 48.6 µM; in test [2], 273 µM.

In the case of `CCC(CN(C(=O)C(=O)O)c1ccc(C[C@H](NC(=O)OC(C)(C)C)C(=O)NCCCCOc2cccc(O)c2C(=O)OC)cc1)C(=O)O` (stereo partly specified), the inhibition constant Ki in test [6] is 1.7 µM; in test [1] it was over 30 µM; in test [2] it was 9 µM; in test [3], over 30 µM; in test [4] it was over 30 µM; in test [5], over 30 µM.

Turning to `COC(=O)c1c(O)cccc1OCCCCNC(=O)C(Cc1ccc(OC(C(N)=O)C(=O)O)cc1)NC(=O)OC(C)(C)C` (stereo unspecified), the results for the Ki in test [6] and in test [2] were 13.8 µM and 79.5 µM, respectively.

As for `COC(=O)c1c(O)cccc1OCCCCNC(=O)[C@H](Cc1ccc(N(CC(C(=O)O)c2ccccc2)C(=O)C(=O)O)cc1)NC(=O)OC(C)(C)C` (stereo partly specified), the Ki in test [6] was found to be 15.2 µM; in test [2], 97.8 µM.

For `COC(=O)c1c(O)cccc1OCCCCNC(=O)[C@H](Cc1ccc(OCC(=O)O)c(C(=O)O)c1)NC(C)=O`, the Ki was 9.4 µM in test [6] and 129 µM in test [2].

With `COC(=O)c1c(O)cccc1OCCCCNC(=O)[C@H](Cc1ccc(OCC(=O)O)cc1)NC(=O)OC(C)(C)C`, the Ki in test [6] is 220 µM; in test [2], over 200 µM.
